Biological target: T1, CCR1 (Homo sapiens, UniProt P32246)
T1 construct: host or cells: Non-adherent cells
T1 sequence (P32246 1-355): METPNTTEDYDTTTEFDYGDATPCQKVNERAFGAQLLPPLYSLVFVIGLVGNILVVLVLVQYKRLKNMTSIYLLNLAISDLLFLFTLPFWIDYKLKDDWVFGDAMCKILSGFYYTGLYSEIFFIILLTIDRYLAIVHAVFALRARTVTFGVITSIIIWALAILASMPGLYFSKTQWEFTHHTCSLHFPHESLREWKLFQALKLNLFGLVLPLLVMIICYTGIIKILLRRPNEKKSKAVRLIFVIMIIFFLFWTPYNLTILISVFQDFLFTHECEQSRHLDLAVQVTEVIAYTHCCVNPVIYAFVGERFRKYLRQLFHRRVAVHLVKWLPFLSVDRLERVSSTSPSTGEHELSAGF
Assay: functional cellular assay measuring calcium flux in CCR1 transfected cells (block of CCR1/MIP-1α interaction)
Type: cell-based
Conditions: cells stably expressing recombinant CCR1 and G-alpha-16, MIP-1alpha added at EC80
Description: Compounds are assessed for the ability to block the interaction of CCR1 and MIP-1α in a functional cellular assay measuring calcium flux in CCR1 transfected cells.
Non-adherent cells purchased from Chemicon Corporation (HTS005C), stably expressing recombinant CCR1 and G-alpha-16 are grown in RPMI 1640 medium (Mediatech 10-080-CM) supplemented with 10% FBS, 0.4 mg/mL Geneticin and penicillin/streptomycin. On the day of the assay, the cells are loaded with Calcium 4 dye (Molecular Devices R7448) with Probenecid (Invitrogen P346400) at 8E5 cells/mL for 1 hour at room temperature. After 1 hour, they are seeded in a 384-well tissue culture-treated plate at a density of 20,000 cells/well. Appropriately diluted test compound is added to the well to achieve a top concentration of 3,000 nM (diluted 4-fold with 10 doses total). The final concentration of DMSO is 1%. The buffer is HBSS (Invitrogen 14025) with 20 mM HEPES at pH 7.4. The cells incubate 30 minutes at 37 C and then 30 minutes at room temperature. The plates are transferred to the […] FDSS6000 where MIP-1alpha in 1% BSA is added at the EC80 final concentration. All plates must be read within 4 hours of the start of dye-loading. Wells +/− MIP-1alpha containing diluted DMSO instead of compound serve as the controls. Data are analyzed using Activity Base software.

| IC50 [nM] | Compound |
| --- | --- |
| 4 | CS(=O)(=O)c1cc(C2(NC(=O)c3cccc4c3cnn4-c3ccc(F)cc3)CC2)ccn1 [1-(4-Fluoro-phenyl)-1H-indazole-4-carboxylic acid [1-(2-methanesulfonyl-pyridin-4-yl)-cyclopropyl]-amide] |
| 88 | O=C(NC1(c2cccnc2)CC1)c1cncc2c1cnn2-c1ccc(F)cc1 [1-(4-Fluoro-phenyl)-1H-pyrazolo[3,4-c]pyridine-4-carboxylic acid (1-pyridin-3-yl-cyclopropyl)-amide] |
| 3 | NS(=O)(=O)c1cccc(C2(NC(=O)c3cncc4c3cnn4-c3ccc(F)cc3)CC2)c1 [1-(4-Fluoro-phenyl)-1H-pyrazolo[3,4-c]pyridine-4-carboxylic acid [1-(3-sulfamoyl-phenyl)-cyclopropyl]-amide] |
| 6 | O=C(NC1(c2ccc(N3CCOCC3)nc2)CC1)c1cncc2c1cnn2-c1ccc(F)cc1 [1-(4-Fluoro-phenyl)-1H-pyrazolo[3,4-c]pyridine-4-carboxylic acid [1-(6-morpholin-4-yl-pyridin-3-yl)-cyclopropyl]-amide] |
| 27 | O=C(O)c1cccc(C2(NC(=O)c3cncc4c3cnn4-c3ccc(F)cc3)CC2)c1 [3-(1-{[1-(4-Fluoro-phenyl)-1H-pyrazolo[3,4-c]pyridine-4-carbonyl]-amino}-cyclopropyl)-benzoic acid] |
| 705 | NCc1ccc(C2(NC(=O)c3cncc4c3cnn4-c3ccc(F)cc3)CC2)nc1 [1-(4-Fluoro-phenyl)-1H-pyrazolo[3,4-c]pyridine-4-carboxylic acid [1-(5-aminomethyl-pyridin-2-yl)-cyclopropyl]-amide] |
| 17 | COC(=O)CCS(=O)(=O)c1cccc(C2(NC(=O)c3cncc4c3cnn4-c3ccc(F)cc3)CC2)c1 [3-[3-(1-{[1-(4-Fluoro-phenyl)-1H-pyrazolo[3,4-c]pyridine-4-carbonyl]-amino}-cyclopropyl)-benzenesulfonyl]-propionic acid methyl ester] |
| 13 | O=C(NC1(c2cccc(F)c2)CC1)c1cncc2c1cnn2-c1ccc(F)cc1 [1-(4-Fluoro-phenyl)-1H-pyrazolo[3,4-c]pyridine-4-carboxylic acid [1-(3-fluoro-phenyl)-cyclopropyl]-amide] |
| 3 | O=C(NC1(c2cccc(Cl)c2)CC1)c1cncc2c1cnn2-c1ccc(F)cc1 [1-(4-Fluoro-phenyl)-1H-pyrazolo[3,4-c]pyridine-4-carboxylic acid [1-(3-chloro-phenyl)-cyclopropyl]-amide] |
| 99 | Cc1nc(C2(NC(=O)c3cncc4c3cnn4-c3ccc(F)cc3)CC2)cs1 [1-(4-Fluoro-phenyl)-1H-pyrazolo[3,4-c]pyridine-4-carboxylic acid [1-(2-methyl-thiazol-4-yl)-cyclopropyl]-amide] |
| 0.1 | CS(=O)(=O)c1cc(C2(NC(=O)c3cc(C#N)cc4c3cnn4-c3ccc(F)cc3)CC2)ccn1 [6-Cyano-1-(4-fluoro-phenyl)-1H-indazole-4-carboxylic acid [1-(2-methanesulfonyl-pyridin-4-yl)-cyclopropyl]-amide] |
| 2 | CS(=O)(=O)c1cc(C2(NC(=O)c3cc(Br)cc4c3cnn4-c3ccc(F)cc3)CC2)ccn1 [6-Bromo-1-(4-fluoro-phenyl)-1H-indazole-4-carboxylic acid [1-(2-methanesulfonyl-pyridin-4-yl)-cyclopropyl]-amide] |
| 2 | CNC(=O)c1cccc(C2(NC(=O)c3cncc4c3cnn4-c3ccc(F)cc3)CC2)c1 [1-(4-Fluoro-phenyl)-1H-pyrazolo[3,4-c]pyridine-4-carboxylic acid [1-(3-methylcarbamoyl-phenyl)-cyclopropyl]-amide] |
| 11 | COC(=O)c1cccc(C2(NC(=O)c3cncc4c3cnn4-c3ccc(F)cc3)CC2)c1 [3-(1-{[1-(4-Fluoro-phenyl)-1H-pyrazolo[3,4-c]pyridine-4-carbonyl]-amino}-cyclopropyl)-benzoic acid methyl ester] |
| 14 | Cc1ccc(C2(NC(=O)c3cncc4c3cnn4-c3ccc(F)cc3)CC2)cc1 [1-(4-Fluoro-phenyl)-1H-pyrazolo[3,4-c]pyridine-4-carboxylic acid (1-p-tolyl-cyclopropyl)-amide] |
| 2 | O=C(NC1(c2cc(I)ccn2)CC1)c1cncc2c1cnn2-c1ccc(F)cc1 [1-(4-Fluoro-phenyl)-1H-pyrazolo[3,4-c]pyridine-4-carboxylic acid [1-(4-iodo-pyridin-2-yl)-cyclopropyl]-amide] |
| 19 | O=C(NC1(c2ccc(Br)nc2)CC1)c1cncc2c1cnn2-c1ccc(F)cc1 [1-(4-Fluoro-phenyl)-1H-pyrazolo[3,4-c]pyridine-4-carboxylic acid [1-(6-bromo-pyridin-3-yl)-cyclopropyl]-amide] |
| 10 | COC(=O)CCS(=O)(=O)c1ccc(C2(NC(=O)c3cncc4c3cnn4-c3ccc(F)cc3)CC2)cn1 [3-[5-(1-{[1-(4-Fluoro-phenyl)-1H-pyrazolo[3,4-c]pyridine-4-carbonyl]-amino}-cyclopropyl)-pyridine-2-sulfonyl]-propionic acid methyl ester] |
| 17 | COc1ccc(C2(NC(=O)c3cncc4c3cnn4-c3ccc(F)cc3)CC2)cc1 [1-(4-Fluoro-phenyl)-1H-pyrazolo[3,4-c]pyridine-4-carboxylic acid [1-(4-methoxy-phenyl)-cyclopropyl]-amide] |
| 3 | CN(C)c1cccc(C2(NC(=O)c3cncc4c3cnn4-c3ccc(F)cc3)CC2)n1 [1-(4-Fluoro-phenyl)-1H-pyrazolo[3,4-c]pyridine-4-carboxylic acid [1-(6-dimethylamino-pyridin-2-yl)-cyclopropyl]-amide] |
| 61 | O=C(NC1(c2noc(C3CC3)n2)CC1)c1cncc2c1cnn2-c1ccc(F)cc1 [1-(4-Fluoro-phenyl)-1H-pyrazolo[3,4-c]pyridine-4-carboxylic acid [1-(5-cyclopropyl-1,2,4-oxadiazol-3-yl)-cyclopropyl]-amide] |
| 109 | O=C(NC1(c2ccccc2)CC1)c1cncc2c1cnn2-c1ccc(F)cc1 [1-(4-Fluoro-phenyl)-1H-pyrazolo[3,4-c]pyridine-4-carboxylic acid (1-phenyl-cyclopropyl)-amide] |
| 61 | Cc1ccccc1C1(NC(=O)c2cncc3c2cnn3-c2ccc(F)cc2)CC1 [1-(4-Fluoro-phenyl)-1H-pyrazolo[3,4-c]pyridine-4-carboxylic acid (1-o-tolyl-cyclopropyl)-amide] |
| 1 | CS(=O)(=O)c1cccc(C2(NC(=O)c3cncc4c3cnn4-c3ccc(F)cc3)CC2)c1 [1-(4-Fluoro-phenyl)-1H-pyrazolo[3,4-c]pyridine-4-carboxylic acid [1-(3-methanesulfonyl-phenyl)-cyclopropyl]-amide] |
| 51 | COc1ccc(C2(NC(=O)c3cncc4c3cnn4-c3ccc(F)cc3)CCC2)cc1 [1-(4-Fluoro-phenyl)-1H-pyrazolo[3,4-c]pyridine-4-carboxylic acid [1-(4-methoxy-phenyl)-cyclobutyl]-amide] |
| 18 | O=C(NC1(c2ccncc2)CC1)c1cncc2c1cnn2-c1ccc(F)cc1 [1-(4-Fluoro-phenyl)-1H-pyrazolo[3,4-c]pyridine-4-carboxylic acid (1-pyridin-4-yl-cyclopropyl)-amide] |
| 290 | NCc1ccnc(C2(NC(=O)c3cncc4c3cnn4-c3ccc(F)cc3)CC2)c1 [1-(4-Fluoro-phenyl)-1H-pyrazolo[3,4-c]pyridine-4-carboxylic acid [1-(4-aminomethyl-pyridin-2-yl)-cyclopropyl]-amide] |
